In patent publication US20230175069A1, “COMPOSITIONS AND METHODS FOR DETECTING GENE FUSIONS OF ESR1 AND CCDC170 FOR DETERMINING INCREASED RESISTANCE TO ENDOCRINE THERAPY AND FOR CANCER TREATMENT” (UNIVERSITY OF PITTSBURGH-OF THE COMMONWEAL TH SYSTEM OF …, priority 2020, published 2023):

Tests used:
HCC1428 cells = assay: Clonogenic assay in HCC1428 cells (endogenous E2-E10 ESR1-CCDC170 fusion); assay type: cell-based, human; settings: for cell viability, inhibitor in combination with tamoxifen or fulvestrant compared to tamoxifen or fulvestrant alone / therapeutic effect when combined with fulvestrant, comparison / therapeutic activity in combination with tamoxifen or fulvestrant, comparison between inhibitors: lapatinib 2 µM; for cell viability, inhibitor in combination with tamoxifen or fulvestrant compared to tamoxifen or fulvestrant alone: dasatinib 0.05 µM, BEZ235 8 nM; for cell viability, inhibitor in combination with tamoxifen or fulvestrant compared to tamoxifen or fulvestrant alone / therapeutic activity in combination with tamoxifen or fulvestrant, comparison between inhibitors: AZD8931 1 µM; for therapeutic effect when combined with fulvestrant, comparison: dasatinib 0.05 µM plus fulvestrant; for therapeutic activity in combination with tamoxifen or fulvestrant, comparison between inhibitors: dasatinib 0.05 µM vs BEZ235 8 nM
ZR-75-1 cells = assay: Clonogenic assay in ZR-75-1 cells (E2-E6 ESR1-CCDC170 fusion); assay type: cell-based, human; settings: for cell viability, concomitant inhibitor compared to endocrine treatment alone: lapatinib 2 µM or dasatinib 0.05 µM with tamoxifen or fulvestrant
Procedure: A) Sensitivity of ZR-75-1 cells to tamoxifen in combination with HER2, SRC, or HER2+SRC inhibitors as measured by clonogenic assays. ZR-75-1 cells were treated with different dosages of 4-OH tamoxifen (µM), or 4-OH tamoxifen plus lapatinib (2 µM), dasatinib (0.05 µM), or lapatinib (2 µM) + dasatinib (0.05 µM). Data were normalized against vehicle treatment alone (as 100%). […] Data were normalized against vehicle treatment alone (as 100%).
Left panel, the representative plate images of clonogenic assays. Right panel, the relative clonogenic viabilities normalized to tamoxifen monotreatment (Means ± SD. of triplicates).
The clonogenic viabilities following the respective treatments were assessed by clonogenic assays.

CAMA-1 = assay: Clonogenic assay in fusion-negative CAMA-1 cells; assay type: cell-based; settings: Homo sapiens; CAMA-1 (fusion-negative); titrated lapatinib in combination with 0.5 µM tamoxifen, 10 to 13 days; read-out: IC50 (clonogenic viability)
MDA-MB-415 = assay: Clonogenic assay in fusion-negative MDA-MB-415 cells; assay type: cell-based; settings: Homo sapiens; MDA-MB-415 (fusion-negative); titrated lapatinib in combination with 0.5 µM tamoxifen, 10 to 13 days; read-out: IC50 (clonogenic viability)
HER2 = settings: HCC1428 cells

## CNC(=O)CN1CCC(Oc2cc3c(Nc4cccc(Cl)c4F)ncnc3cc2OC)CC1 [AZD8931]
HCC1428 cells
  cell viability, inhibitor in combination with tamoxifen or fulvestrant compared to tamoxifen or fulvestrant alone: significantly inhibited cell viability

## Cn1c(=O)n(-c2ccc(C(C)(C)C#N)cc2)c2c3cc(-c4cnc5ccccc5c4)ccc3ncc21 [BEZ235]
HCC1428 cells
  cell viability, inhibitor in combination with tamoxifen or fulvestrant compared to tamoxifen or fulvestrant alone: significantly inhibited cell viability

## Cc1nc(Nc2ncc(C(=O)Nc3c(C)cccc3Cl)s2)cc(N2CCN(CCO)CC2)n1 [dasatinib]
ZR-75-1 cells
  cell viability, concomitant inhibitor compared to endocrine treatment alone: did not show any significant therapeutic benefit
HCC1428 cells; dasatinib 0.05 µM vs lapatinib 2 µM plus 4-OH tamoxifen
  activity in the presence of tamoxifen, comparison: better activity than lapatinib
HCC1428 cells
  therapeutic effect when combined with fulvestrant, comparison: comparable therapeutic effects
  therapeutic activity in combination with tamoxifen or fulvestrant, comparison between inhibitors: better therapeutic activities than BEZ235 or AZD8931
  cell viability, inhibitor in combination with tamoxifen or fulvestrant compared to tamoxifen or fulvestrant alone: significantly inhibited cell viability

## CS(=O)(=O)CCNCc1ccc(-c2ccc3ncnc(Nc4ccc(OCc5cccc(F)c5)c(Cl)c4)c3c2)o1 [lapatinib]
CAMA-1
  IC50: 6.5 µM
ZR-75-1 cells; Homo sapiens, ZR-75-1 (E2-E6 variant), titrated lapatinib in combination with 0.5 µM tamoxifen, 10 to 13 days, normalized to tamoxifen monotreatment, read-out: IC50 (clonogenic viability)
  IC50: 0.6 µM
ZR-75-1 cells
  cell viability, concomitant inhibitor compared to endocrine treatment alone: further decreased cell viability
HCC1428 cells; Homo sapiens, HCC1428 (E2-E10 variant), titrated lapatinib in combination with 0.5 µM tamoxifen, 10 to 13 days, normalized to tamoxifen monotreatment, read-out: IC50 (clonogenic viability)
  IC50: 0.15 µM
HCC1428 cells
  therapeutic effect when combined with fulvestrant, comparison: comparable therapeutic effects
  therapeutic activity in combination with tamoxifen or fulvestrant, comparison between inhibitors: better therapeutic activities than BEZ235 or AZD8931
  cell viability, inhibitor in combination with tamoxifen or fulvestrant compared to tamoxifen or fulvestrant alone: significantly inhibited cell viability
MDA-MB-415
  IC50: 4 µM

## CC/C(=C(\c1ccccc1)c1ccc(OCCN(C)C)cc1)c1ccccc1 [tamoxifen]
HER2
  HER2 protein level (Western blot): upregulated
ZR-75-1 cells; increasing doses of tamoxifen or fulvestrant
  response of cells to endocrine treatment (clonogenic assay): responded
HCC1428 cells; Tam 0.5 µM or Ful 0.1 µM, 72 hours
  cell growth (clonogenic assay), endocrine agent alone: reduced cell growth efficiently
